How the values were obtained:
A549 = assay: 72-h MTT cytotoxicity assay, A549; assay type: cell-based, human; details: Homo sapiens, Table 4, additional data for cytotoxicity assay using the A549 cell line; read-out: A549
Description: Selected compounds from the above examples were subjected to a standard cellular proliferation assay using a range of different human tumour cell lines. Standard 72-h MTT (thiazolyl blue; 3-{4,5-dimethylthiazol-2-yl}-2,5-diphenyltetrazolium bromide) assays were performed (Haselsberger, K.; Peterson, D. C.; Thomas, D. G.; Darling, J. L. Anti Cancer Drugs 1996, 7, 331-8; Loveland, B. E.; Johns, T. G.; Mackay, I. R.; Vaillant, F.; Wang, Z. X.; Hertzog, P. J. Biochemistry International 1992, 27, 501-10). Human tumour cell lines were obtained from the ATCC (American Type Culture Collection, 10801 University Boulevard, Manessas, Va. 20110-2209, USA).

CDK2/cyclin E = target: T1, CDK2/cyclin E (Homo sapiens, UniProt P24941); assay: CDK2/cyclin E kinase assay (GST-Rb phosphorylation); assay type: biochemical; details: Table 2, further results for CDK2/cyclin E inhibition; read-out: CDK2/cyclin E;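 further: enzyme source: His-tagged CDK2/cyclin E co-expressed in Sf9 insect cells via baculovirus, then purified by metal-chelate chromatography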
T1 construct: His; made in house; host or cells: Sf9 insect cells (baculovirus)

A549 cells = assay: Mitotic index HitKit (Cellomix); assay type: cell-based, human; details: at a concentration of 22 nM, toxicity above this concentration
Excerpt: The effect of compound 28 on the mitotic index was studied using mitotic index HitKit (Cellomix). Vinblastine was used as control in the experiments.
Above this concentration a decrease in the number of mitotic cells is observed which correlates with a decrease in the total number of cells.

| Compound | IC50 (A549) | IC50 (CDK2/cyclin E) | maximum percentage of mitotic cells (A549 cells) |
| --- | --- | --- | --- |
| COC(=O)c1ccc(Nc2nccc(-c3sc(C)nc3C)n2)cc1 [Compound 50, 4-{4-(2,4-Dimethyl-thiazol-5-yl)-pyrimidin-2-ylamino}-benzoic acid methyl ester] | 8.8 ± 10 µM | 0.3 µM |  |
| Cc1nc(C)c(-c2ccnc(Nc3ccc(C(=O)O)cc3)n2)s1 [Compound 53, 4-{4-(2,4-Dimethyl-thiazol-5-yl)-pyrimidin-2-ylamino}-benzoic acid] | 12 ± 5 µM | 0.7 ± 0.4 µM |  |
| CC[C@]1(O)C[C@@H]2CN(CCc3c([nH]c4ccccc34)[C@@](C(=O)OC)(c3cc4c(cc3OC)N(C)[C@H]3[C@@](O)(C(=O)OC)[C@H](OC(C)=O)[C@]5(CC)C=CCN6CC[C@]43[C@@H]65)C2)C1 [Vinblastine, reference compound] |  |  | 31% |
| CNc1nc(C)c(-c2ccnc(Nc3ccc(F)cc3)n2)s1 [Compound 62, (4-Fluoro-phenyl)-{4-(4-methyl-2-methylamino-thiazol-5-yl)-pyrimidin-2-yl}-amine] | 1.1 ± 0.2 µM | 0.06 ± 0.03 µM |  |
| Cc1nc(C)c(-c2ccnc(Nc3cccc(Br)c3)n2)s1 [Compound 30, (3-Bromo-phenyl)-{4-(2,4-dimethyl-thiazol-5-yl)-pyrimidin-2-yl}-amine] | 6.4 ± 0.05 µM | 0.94 ± 0.49 µM |  |
| COc1ccccc1Nc1nccc(-c2sc(C)nc2C)n1 [Compound 37, {4-(2,4-Dimethyl-thiazol-5-yl)-pyrimidin-2-yl}-(2-methoxy-phenyl)-amine] | 25 µM | 6.4 ± 0.1 µM |  |
| CNc1nc(C)c(-c2ccnc(Nc3ccc(F)cc3F)n2)s1 [Compound 105, (2,4-Difluoro-phenyl)-{4-(4-methyl-2-methylamino-thiazol-5-yl)-pyrimidin-2-yl}-amine] | 0.7 ± 0.9 µM | 2 µM |  |
| CNc1nc(C)c(-c2ccnc(Nc3cccc(OC)c3)n2)s1 [Compound 88, (3-Methoxy-phenyl)-{4-(4-methyl-2-methylamino-thiazol-5-yl)-pyrimidin-2-yl}-amine] | 0.4 ± 0.1 µM | 0.2 µM |  |
| CNc1nc(C)c(-c2ccnc(Nc3ccc(Cl)cc3)n2)s1 [Compound 87, (4-Chloro-phenyl)-{4-(4-methyl-2-methylamino-thiazol-5-yl)-pyrimidin-2-yl}-amine] | 1.7 ± 0.1 µM | 0.08 µM |  |
| CNc1nc(C)c(-c2ccnc(Nc3ccc(Cl)c(C(F)(F)F)c3)n2)s1 [Compound 107, (4-Chloro-3-trifluoromethyl-phenyl)-{4-(4-methyl-2-methylamino-thiazol-5-yl)-pyrimidin-2-yl}-amine] | 0.7 ± 0.2 µM | 3 µM |  |
| CNc1nc(C)c(-c2ccnc(Nc3cccc([N+](=O)[O-])c3)n2)s1 [Compound 76, (4-{4-Methyl-2-methylamino-thiazol-5-yl)-pyrimidin-2-yl}-(3-nitro-phenyl)-amine] | 3 ± 0.9 µM | 0.8 µM |  |
| CCNc1nc(C)c(-c2ccnc(Nc3ccc(F)cc3)n2)s1 [Compound 75, {4-(2-Ethylamino-4-methyl-thiazol-5-yl)-pyrimidin-2-yl}-(4-fluoro-phenyl)-amine] | 3.2 ± 0.4 µM | 0.2 µM |  |
| COCCOC(=O)c1cc(Nc2nccc(-c3sc(C)nc3C)n2)ccc1F [Compound 98, 5-{4-(2,4-Dimethyl-thiazol-5-yl)-pyrimidin-2-ylamino}-2-fluoro-benzoic acid 2-methoxy-ethyl ester] | 2.8 ± 2.1 µM | 1.1 µM |  |
| COc1cccc(Nc2nccc(-c3sc(C)nc3C)n2)c1 [Compound 38, {4-(2,4-Dimethyl-thiazol-5-yl)-pyrimidin-2-yl}-(3-methoxy-phenyl)-amine] | 4.5 ± 1.6 µM | 0.4 ± 0.3 µM |  |
| CNc1nc(C)c(-c2ccnc(Nc3ccc(I)cc3)n2)s1 [Compound 72, (4-Iodo-phenyl)-{4-(4-methyl-2-methylamino-thiazol-5-yl)-pyrimidin-2-yl}-amine] | 0.8 ± 0.5 µM | 0.9 µM |  |
| Cc1nc(C)c(-c2ccnc(Nc3cccc(C#N)c3)n2)s1 [Compound 49, 3-{4-(2,4-Dimethyl-thiazol-5-yl)-pyrimidin-2-ylamino}-benzonitrile] | 2.2 ± 0.02 µM | 0.02 µM |  |
| Cc1nc(C)c(-c2ccnc(Nc3ccc(C)c(Cl)c3)n2)s1 [Compound 51, (3-Chloro-4-methyl-phenyl)-{4-(2,4-dimethyl-thiazol-5-yl)-pyrimidin-2-yl}-amine] | 0.3 ± 0.3 µM | 0.75 µM |  |
| CNc1nc(C)c(-c2ccnc(Nc3cc(F)cc(F)c3)n2)s1 [Compound 106, (3,5-Difluoro-phenyl)-{4-(4-methyl-2-methylamino-thiazol-5-yl)-pyrimidin-2-yl}-amine] | 2.8 ± 0.5 µM | 10 µM |  |
| Cc1nc(C)c(-c2ccnc(Nc3ccc(F)cc3F)n2)s1 [Compound 22, (2,4-Difluoro-phenyl)-{4-(2,4-dimethyl-thiazol-5-yl)-pyrimidin-2-yl}-amine] | 20 ± 1 µM | 0.02 µM |  |
| CNc1nc(C)c(-c2ccnc(Nc3ccc(O)c([N+](=O)[O-])c3)n2)s1 [Compound 73, 4-{4-(4-Methyl-2-methylamino-thiazol-5-yl)-pyrimidin-2-ylamino}-2-nitro-phenol] | 9 ± 4 µM | 0.2 µM |  |
| Cc1nc(C)c(-c2ccnc(Nc3ccc(C#N)cc3)n2)s1 [Compound 48, 4-{4-(2,4-Dimethyl-thiazol-5-yl)-pyrimidin-2-ylamino}-benzonitrile] | 6.7 ± 1.1 µM | 0.03 µM |  |
| CNc1nc(C)c(-c2ccnc(Nc3ccc(C(F)(F)F)cc3)n2)s1 [Compound 89, {4-(4-Methyl-2-methylamino-thiazol-5-yl)-pyrimidin-2-yl}-(4-trifluoromethyl-phenyl)-amine] | 18 ± 11 µM | 1.2 µM |  |
| CNc1nc(C)c(-c2ccnc(Nc3cccc(Br)c3)n2)s1 [Compound 83, (3-Bromo-phenyl)-{4-(4-methyl-2-methylamino-thiazol-5-yl)-pyrimidin-2-yl}-amine] | 0.6 ± 0.3 µM | 0.2 µM |  |
| COc1ccc(Nc2nccc(-c3sc(C)nc3C)n2)cc1Cl [Compound 52, (3-Chloro-4-methoxy-phenyl)-{4-(2,4-dimethyl-thiazol-5-yl)-pyrimidin-2-yl}-amine] | 0.8 ± 0.3 µM | 0.06 µM |  |
| CCOC(=O)c1ccc(Nc2nccc(-c3sc(NC)nc3C)n2)cc1Cl [Compound 74, 2-Chloro-4-{4-(4-methyl-2-methylamino-thiazol-5-yl)-pyrimidin-2-ylamino}-benzoic acid ethyl ester] | 18 ± 4 µM | 0.1 µM |  |
| CNc1nc(C)c(-c2ccnc(Nc3ccc(Br)cc3)n2)s1 [Compound 86, (4-Bromo-phenyl)-{4-(4-methyl-2-methylamino-thiazol-5-yl)-pyrimidin-2-yl}-amine] | 8 ± 6 µM | 0.13 µM |  |
| COc1ccc(Nc2nccc(-c3sc(C)nc3C)n2)cc1 [Compound 39, {4-(2,4-Dimethyl-thiazol-5-yl)-pyrimidin-2-yl}-(4-methoxy-phenyl)-amine] | 0.3 µM | 0.22 ± 0.07 µM |  |
| Cc1nc(-c2ccccc2)sc1-c1ccnc(Nc2ccc(O)cc2)n1 [Compound 60, 4-{4-(4-Methyl-2-phenyl-thiazol-5-yl)-pyrimidin-2-ylamino}-phenol] | 2.1 ± 0.3 µM | 4 µM |  |
| C=CCNc1nc(C)c(-c2ccnc(Nc3ccc(F)cc3)n2)s1 [Compound 82, {4-(2-Allylamino-4-methyl-thiazol-5-yl)-pyrimidin-2-yl}-(4-fluoro-phenyl)-amine] | 1.1 ± 0.3 µM | 0.2 µM |  |
| Cc1nc(C)c(-c2ccnc(Nc3cccc(I)c3)n2)s1 [Compound 33, {4-(2,4-Dimethyl-thiazol-5-yl)-pyrimidin-2-yl}-(3-iodo-phenyl)-amine] | 61 ± 55 µM | 0.2 µM |  |
